This note sets out measurements from patent US6262073A, “Pharmaceutical methods of use of 5-substituted and 5,5 disubstituted-3,4-dihydroxy-2(5H)-furanones” (Oxis International Inc., priority 2000, dated 2001).

Holding throughout (type): biochemical
Assay [1] has as its target T1, Cyclooxygenase-2 (prostaglandin H synthetase-2) from sheep placenta (Ovis aries, UniProt P79208).
T1 construct: cyclooxygenase-2 from sheep placenta; from tissue; host or cells: sheep placenta
T1 sequence (P79208 17-603): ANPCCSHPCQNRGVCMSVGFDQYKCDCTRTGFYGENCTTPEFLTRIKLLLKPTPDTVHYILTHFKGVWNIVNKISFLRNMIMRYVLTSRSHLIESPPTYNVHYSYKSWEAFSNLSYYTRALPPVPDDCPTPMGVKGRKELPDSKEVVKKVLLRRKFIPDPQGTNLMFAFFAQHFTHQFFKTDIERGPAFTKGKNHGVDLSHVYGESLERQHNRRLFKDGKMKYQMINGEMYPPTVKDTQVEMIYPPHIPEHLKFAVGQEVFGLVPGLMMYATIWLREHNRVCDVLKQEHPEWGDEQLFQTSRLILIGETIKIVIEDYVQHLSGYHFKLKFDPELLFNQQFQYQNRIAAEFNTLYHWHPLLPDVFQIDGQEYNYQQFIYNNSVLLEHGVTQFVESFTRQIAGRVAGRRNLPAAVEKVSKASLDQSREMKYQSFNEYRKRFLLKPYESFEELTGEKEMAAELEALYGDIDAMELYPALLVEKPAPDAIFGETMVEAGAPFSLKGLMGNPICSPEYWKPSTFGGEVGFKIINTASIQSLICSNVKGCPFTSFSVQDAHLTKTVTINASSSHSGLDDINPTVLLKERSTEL
The assay can be described thus: Cyclooxygenase-2 screen (COX-2). To be noted: read-out: COX-2 percent inhibition. The method, then: (§1) The compounds of the invention were screened for their anti-inflammatory activity using a series of in vitro tests the details of which are given below. The activity of various compounds against 5-lipoxygenase, cycloxygenase-1, cycloxygenase-2 and lipid peroxidase was evaluated. Results of the screening procedures are included in TABLE I, and the activity against 5-lipoxygenase at a test concentration of 1 μM in Table II.
Cyclooxygenase-2, also known as prostaglandin H synthetase-2, catalyzes the rate- limiting step in the synthesis of inflammatory prostaglandins. In this reaction cyclooxygenase-2 catalyzes the oxygenation of unesterified precursors to form cyclic endoperoxide derivatives, including prostaglandin H. Briefly, cyclooxygenase-2 from sheep placenta, 14 μg/assay tube, is incubated with arachidonic acid (500 μM) for 1.5 minutes at 27° C. in the absence or presence of test compounds according to the methods of A. T. Evans, et al., Biochem Pharm. […] Res. Comm. […] Compounds are screened at 300 μM.

Assay [2] addresses T2, Cyclooxygenase-1 (cyclooxygenase from ram seminal vesicles) (Ovis aries, UniProt P05979).
T2 construct: cyclooxygenase from ram seminal vesicles; from tissue; host or cells: ram seminal vesicles
T2 sequence (P05979 25-600): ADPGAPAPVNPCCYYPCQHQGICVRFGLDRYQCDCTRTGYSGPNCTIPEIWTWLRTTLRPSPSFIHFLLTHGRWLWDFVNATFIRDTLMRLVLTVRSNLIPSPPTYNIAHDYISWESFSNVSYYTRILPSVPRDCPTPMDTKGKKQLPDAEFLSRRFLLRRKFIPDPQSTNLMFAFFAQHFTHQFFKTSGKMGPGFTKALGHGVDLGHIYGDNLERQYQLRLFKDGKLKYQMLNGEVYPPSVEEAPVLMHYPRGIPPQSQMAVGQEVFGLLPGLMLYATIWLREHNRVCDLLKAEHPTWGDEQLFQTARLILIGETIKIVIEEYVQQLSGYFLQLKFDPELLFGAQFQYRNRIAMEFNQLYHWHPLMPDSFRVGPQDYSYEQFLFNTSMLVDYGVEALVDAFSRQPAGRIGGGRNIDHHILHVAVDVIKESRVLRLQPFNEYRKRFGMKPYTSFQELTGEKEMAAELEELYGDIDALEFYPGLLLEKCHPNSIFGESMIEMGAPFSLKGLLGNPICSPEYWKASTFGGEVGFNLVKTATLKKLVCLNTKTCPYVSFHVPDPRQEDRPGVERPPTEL
Briefly: Cyclooxygenase-1 screen (COX-1). To be noted: 300 μM. The method, then: as §1
Cyclooxygenase-1 is involved in the formation of prostaglandins and thromboxane via the oxidative metabolism of arachidonic acid. Briefly, cyclooxygenase from ram seminal vesicles is incubated with arachidonic acid (100 μm) for 2 minutes at 37° C. in the presence or absence of test compounds according to the methods of A. T. Evans et al., Biochem. Pharm. 36:2035-2037(1987) and R. Boopathy et al., Biochem J. 239:371-377 (1968). The assay is terminated by the addition of trichioroacetic acid and cyclooxygenase activity is determined by reading the absorbance at 530 nm. […]

Assay [3] has as its system Lipid peroxidation (rat liver microsomes). Briefly: Lipid peroxidation screen (LPO), CCl4-induced, liver microsomes. The note with it: for LPO percent inhibition: 300 μM. As to the method:
as §1
Lipid peroxidation is a consequence of various stimuli, including reactive free radicals. Polyunsaturated fatty acids associated with plasma membranes are degraded due to enzymatic induction by reactive agents such as CCl4, leading to cellular damage. Briefly, microsomes are prepared from rat livers and the protein concentration is determined according to the method of D. Mansuy et al., Biochem. Biophys. Res. Comm. 135:1015-1021(1986). A reaction mixture consisting of 2 mg of the microsomal preparation, an NADPH generating system, 20 mM CCl4 and test compound are incubated for 12 minutes at 37° C. The reaction is terminated by the addition of a mixture of thiobarbituric acid and trichloroacetic acid. The absorbance is read at 535 nm and is proportional to the concentration of malondialdehyde. Compounds are screened at 300 μM.

The target of assay [4] is T3, 5-Lipoxygenase (crude enzyme preparation from rat basophilic leukemia cells, RBL-1) (Rattus norvegicus, UniProt P12527).
T3 construct: crude enzyme preparation from rat basophilic leukemia cells (RBL-1); endogenous in cells; host or cells: rat basophilic leukemia cells (RBL-1)
T3 sequence (P12527 1-673): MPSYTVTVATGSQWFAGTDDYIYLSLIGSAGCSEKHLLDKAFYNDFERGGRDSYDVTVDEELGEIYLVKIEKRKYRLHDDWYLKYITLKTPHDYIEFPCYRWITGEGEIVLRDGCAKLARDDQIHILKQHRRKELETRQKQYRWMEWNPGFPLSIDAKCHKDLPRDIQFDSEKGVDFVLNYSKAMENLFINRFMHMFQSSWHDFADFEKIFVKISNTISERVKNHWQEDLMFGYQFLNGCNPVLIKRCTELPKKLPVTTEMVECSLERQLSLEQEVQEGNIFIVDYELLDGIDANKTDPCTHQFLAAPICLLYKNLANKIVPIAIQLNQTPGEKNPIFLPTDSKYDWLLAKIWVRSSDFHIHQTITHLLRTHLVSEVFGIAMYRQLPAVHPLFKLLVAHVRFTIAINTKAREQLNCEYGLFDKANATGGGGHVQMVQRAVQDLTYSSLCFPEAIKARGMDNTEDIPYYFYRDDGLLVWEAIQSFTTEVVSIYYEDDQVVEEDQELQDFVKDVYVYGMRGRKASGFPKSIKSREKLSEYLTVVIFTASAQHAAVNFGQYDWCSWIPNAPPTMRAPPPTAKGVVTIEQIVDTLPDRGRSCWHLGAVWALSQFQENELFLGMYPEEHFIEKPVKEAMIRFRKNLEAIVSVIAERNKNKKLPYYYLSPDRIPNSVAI
Briefly: 5-Lipoxygenase screen (5-LO), 5-HETE by RIA. To be noted: for inhibition at 30 µM: read-out: 5-LO percent inhibition; for inhibition at 1 µM: read-out: Percent inhibition of 5-LO, test conc. 1 μM (Table II). As to the method: as §1
5-Lipoxygenase catalyzes the oxidative metabolism of arachidonic acid to […] (5-HETE), the initial reaction leading to the formation of the leukotrienes. Briefly, the testing procedure utilizes a crude enzyme preparation from rat basophilic leukemia cells (RBL-1) according to the methods of T. Shimuzu et al. Pro. […] Test compounds are pre-incubated with the enzyme preparation for 5 minutes at room temperature and the reaction is initiated by the addition of arachidonic acid. Following an 8 minute incubation at room temperature, the reaction is terminated by the addition of citric acid and concentrations of 5-HETE are determined by RIA. Compounds are screened at 30 μM.

pIC50: −log10 of the molar value.

A word on the inhibition: it is the change of the read-out against control, counted positive when it falls. `O=C1OC(CCOc2ccc3oc(-c4ccccc4)cc(=O)c3c2)C(O)=C1O` (stereo not shown) [Example 16, 3,4-Dihydroxy-5-[2-(flavone-6-oxy)ethyl]-2(5H)-furanone]: the inhibition at 300 µM in assay [1] is 2%. Also, the COX-1 percent inhibition in assay [2] was 17%. For the same compound, the LPO percent inhibition in assay [3] is recorded as 76%. In assay [4], the inhibition at 30 µM is 100% and the inhibition at 1 µM came out at 54%.

With `O=C1OC(CCOc2cccc3ccccc23)C(O)=C1O` (stereo not shown) [Example 18, 3,4-Dihydroxy-5-[2-(1-naphthoxy)ethyl]-2(5H)-furanone], in assay [1], the inhibition at 300 µM is -12%. Further, in assay [2], the COX-1 percent inhibition worked out at 11%. The LPO percent inhibition in assay [3] is 71%. For the same compound, in assay [4], the inhibition at 30 µM stood at 99% and the inhibition at 1 µM was determined as 49%.

`CCCS(=O)(=O)Cc1ccccc1C#CCCC1OC(=O)C(O)=C1O` (stereo not shown) [Example 35, 3,4-Dihydroxy-5-[(4-(2-(propylsulfonyl)methyl)phenyl)-3-butynyl]-2(5H)-furanone]: the inhibition at 300 µM in assay [1] was determined as 13%. In addition, in assay [2], the COX-1 percent inhibition was 25%. In assay [3], the LPO percent inhibition was 60%. In assay [4], the inhibition at 30 µM turned out to be 30%.

For the compound `CCC/C=C\Cc1ccccc1C#CCCC1OC(=O)C(O)=C1O` (stereo not shown) [Example 29], in assay [1], the inhibition at 300 µM amounted to 26%. Besides, the COX-1 percent inhibition in assay [2] came to 55%. Further, in assay [3], the LPO percent inhibition came to 72%. In assay [4], the inhibition at 30 µM stood at 81% and the inhibition at 1 µM amounted to 56%.

By pIC50 is commonly meant −log10 of the IC50, conventionally taken in molar units. In turn, `Cc1c(C)c2c(c(C)c1O)CCC(C)(CCCC(C)CCCC(C)CCCC(C)C)O2` (stereo not drawn) [alpha-tocopherol, reference compound] showed a pIC50 in assay [3] (reference compound under screen conditions) of 3.55.

For `CC(C)Cc1ccc(C2(C)OC(=O)C(O)=C2O)cc1` (stereo not shown) [Example 3, 3,4-Dihydroxy-5-methyl-5-[4-(2-methylpropyl)phenyl]-2(5H)-furanone], the inhibition at 300 µM in assay [1] was -4%. Also, in assay [2], the COX-1 percent inhibition is 2%. Besides, the LPO percent inhibition in assay [3] came out at 78%. The inhibition at 30 µM in assay [4] was determined as 99%.

Turning to `O=C1OC(CCN2c3cccc4cccc(c34)S2(=O)=O)C(O)=C1O` (stereo not shown) [Example 20, 3,4-Dihydroxy-5-[2-(1,8-naphthosultam)-N-ethyl]-2(5H)-furanone], the inhibition at 300 µM in assay [1] amounted to 13%. Moreover, the COX-1 percent inhibition in assay [2] was -15%. In addition, the LPO percent inhibition in assay [3] was determined as 61%. In addition, in assay [4], the inhibition at 30 µM came to 91% and the inhibition at 1 µM came out at 38%.

Take `CC1(c2ccccc2)OC(=O)C(O)=C1O` (stereo not shown) [Example 1, 3,4-Dihydroxy-5-methyl-5-phenyl-2(5H)-furanone]: in assay [1], the inhibition at 300 µM amounted to 3%. The COX-1 percent inhibition in assay [2] is on record as -12%. In addition, in assay [3], the LPO percent inhibition amounted to 63%. Also, in assay [4], the inhibition at 30 µM was 58%.

On to `CCC/C=C\Cc1ccccc1/C=C\CCC1OC(=O)C(O)=C1O` (stereo not shown) [Example 40], for which the inhibition at 300 µM in assay [1] worked out at 25%. Also, the COX-1 percent inhibition in assay [2] came to 38%. In addition, in assay [3], the LPO percent inhibition is 65%. Also, the inhibition at 30 µM in assay [4] turned out to be 99%.

Consider `O=C1OC(CCOc2ccc(Oc3ccccc3)cc2)C(O)=C1O` (stereo not shown) [Example 15, 3,4-Dihydroxy-5-[2-(4-phenoxy)phenoxyethyl]-2(5H)-furanone], for which, in assay [1], the inhibition at 300 µM is -4%. For the same compound, the COX-1 percent inhibition in assay [2] was found to be 9%. In addition, the LPO percent inhibition in assay [3] was -5%. Further, in assay [4], the inhibition at 30 µM turned out to be 100% and the inhibition at 1 µM is 52%.

On to `O=C1OC(CCSc2ccc3ccccc3c2)C(O)=C1O` (stereo not shown) [Example 26, 3,4-Dihydroxy-5-[2-(naphthyl-2-thio)ethyl]-2(5H)-furanone], for which the inhibition at 300 µM in assay [1] came to 12%. Moreover, the COX-1 percent inhibition in assay [2] was found to be 12%. Besides, in assay [3], the LPO percent inhibition came out at 77%. Further, in assay [4], the inhibition at 30 µM was 101% and the inhibition at 1 µM was 54%.

Turning to `O=C1OC(CCC#Cc2ccccc2CSc2ccccc2)C(O)=C1O` (stereo not shown) [Example 30, 3,4-Dihydroxy-5-[(4-(2-(phenylthio)methyl)phenyl)-3-butynyl]-2(5H)-furanone], the inhibition at 300 µM in assay [1] was 16%. Moreover, the COX-1 percent inhibition in assay [2] was determined as 26%. For the same compound, in assay [3], the LPO percent inhibition was determined as 62%. In assay [4], the inhibition at 30 µM was determined as 100% and the inhibition at 1 µM stood at 70%.

On to `CCCCNS(=O)(=O)c1ccccc1C#CCCC1OC(=O)C(O)=C1O` (stereo not shown) [Example 31], for which, in assay [1], the inhibition at 300 µM was 23%. In addition, in assay [2], the COX-1 percent inhibition amounted to 37%. In assay [3], the LPO percent inhibition is recorded as 73%. Besides, in assay [4], the inhibition at 30 µM was 81%.

With `O=C1OC(CCOc2ccc3ccccc3n2)C(O)=C1O` (stereo not shown) [Example 23, 3,4-Dihydroxy-5-[2-(quinoline-2-oxy)ethyl]-2(5H)-furanone], the inhibition at 300 µM in assay [1] was -2%. Further, the inhibition at 30 µM in assay [4] amounted to 93%.
